Source: US20260091078A1, “OLIGOPEPTIDE THAT INHIBITS ANGIOGENESIS AND VASCULAR FUNCTION” (UNIVERSIDAD NACIONAL AUTONOMA DE MEXICO, priority 2019, published 2026)

Tests used:
[1] = test system: immortalized endothelial cells from the bovine umbilical vein (BUVEC E6E7); assay: Transwell Matrigel invasion of BUVEC E6E7 stimulated with VEGF; format: cell-based; settings: BUVEC E6E7, 100 nM, VEGF 50 ng mL^-1, 24 hours
Procedure: (§1) Endothelial cells were seeded over 100 μl Matrigel™ matrix (380 ng μl^−1) on a permeable ‘transwell’ support in a transwell chamber having an area of 0.33 cm^2 and 8 μm of pore-diameter at a density of 30,000 and 14,000 cells cm^−2 for BUVEC E6E7 and HUVEC cells, respectively. In the upper (luminal) compartment the cells were maintained with starving media F12K having 0.1 or 0.5% FBS for BUVEC E6E7 and HUVEC, respectively. In addition, HUVEC cells were maintained with 100 μg ml^−1 heparin. […] After 24 hours the media from both compartments and the luminal cells were removed. The abluminal cells were fixed with 100% MeOH for 10 minutes, permeabilized with TBS1x-0.5% Triton X-100, and stained with Hoechst 33342. The total number of cells in the abluminal compartment indicates the invasive activity of endothelial cells.
(§2) The inhibitory effect of 100 nM of the oligopeptide THGRGFI on the invasion of immortalized endothelial cells from the bovine umbilical vein (BUVEC E6E7) (FIG. 3A) or primary cells from the human umbilical vein (HUVEC) (FIG. 3B) stimulated in each case with VEGF (50 ng mL^−1) was compared with the inhibitory effect of 100 nM of the 123 amino acid vasoinhibin (***P<0.001).

[2] = test system: human endothelial cells from the umbilical-vein (HUVEC); assay: Formation of capillary structures by HUVEC on Matrigel; format: cell-based; settings: 100 nM, 6 hours
Procedure: For investigating whether the oligopeptide THGRGFI shares this property, a primary culture of human endothelial cells from the umbilical-vein (HUVEC) was maintained in F12K media supplemented with 20% FBS, 100 μg ml^−1 of heparin, and 25 μg ml^−1 endothelial cell growth supplement (ECGS). Cells from passages 2 to 4 were rinsed with tempered PBS1x and were detached from the plate with 0.25% trypsin-EDTA for ˜3 minutes and centrifuged to remove trypsin. The cells were counted using an hemocytometer and seeded at a density of 29,000 cells cm^−2 in 300 μl of F12K medium supplemented with 20% FBS and with heparin on a 24-well plate, over a layer of ˜9.7 μg μl^−1 Matrigel™ which was previously polymerized for 1 hour at 37° C. Cells were then treated with 100 nM vasoinhibin or the oligopeptide THGRGFI, and after 6 hours, micrographs were obtained in an inverted microscope. The images were analyzed to quantify main joining areas per field using the software “Angiogenesis Analyzer” [Gilles Carpentier. ImageJ contribution: Angiogenesis Analyzer. ImageJ News, 5 Oct. 2012.] and the ImageJ software.

[3] = test system: primary cells from the human umbilical vein (HUVEC); assay: Transwell Matrigel invasion of HUVEC stimulated with VEGF; format: cell-based; settings: 100 nM, VEGF 50 ng mL^-1, 24 hours
Procedure: as §1, §2

[4] = test system: endothelial cell (BUVEC E6E7) monolayer; assay: Vasopermeability in vitro: transit of Evans blue linked albumin across endothelial monolayer; format: cell-based, bovine; settings: 100 nM, 50 ng ml^-1 VEGF
Procedure: For evaluating if the oligopeptide THGRGFI conserves the inhibitory properties of vasoinhibin on vascular permeability, the transit of Evans blue linked albumin across an endothelial cell (BUVEC E6E7) monolayer was evaluated as follows:
BUVEC E6E7 cells were seeded over a transwell filter (pore of 0.4 μm) at a density of 10,000 cells cm^−2. After 3 days, the monolayers were starved with low serum (0.1 FBS) for 48 hours. Subsequently, 100 nM of the vasoinhibin or the oligopeptide of the present invention were added to the upper compartment (luminal part) of the transwell support, incubated for 1 hour, and followed by the addition of 50 ng ml^−1 of VEGF. Control (Ctl) was without VEGF, vasoinhibin and the oligopeptide. […] Samples of 50 μl of the abluminal compartment were collected and replaced by fresh PBS at 10, 20, 30 and 60 minutes. The absorbance (620 nm) was measured at all time points using a plate reader iMARK (BioRad). Absorbance values confirmed the transit of Evans blue labeled albumin across the endothelial monolayer.

With “Ac-THGRGFI-NH2 [THGRGFI, Thr His Gly Arg Gly Phe Ile]” the “inhibition of invasion of endothelial cells” value [1] was “significatively inhibited”, the “effect on capillary structures (main joining areas per field)” value [2] was “disrupted the capillary structures” and the “inhibition of invasion of endothelial cells” value [3] was “significatively inhibited”. The “inhibition of VEGF-induced endothelial permeability (Evans blue-albumin transit)” value [4] was “inhibited the VEGF-induced increase in endothelial permeability”.
